According to PubChem BioAssay (NCI):
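Protocol summary: plate cells (96-well), add compound at 5 concentrations, incubate 48 h, interpolate endpoints linearly. GI50 is the concentration that inhibits growth by half. TGI: concentration producing complete growth inhibition.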

Legend:
Test in all cases: growth of human tumour cells (NCI), 48 h
RPMI-8226 leukemia = system: RPMI-8226 leukemia
HL-60(TB) leukemia = system: HL-60(TB) leukemia
RXF 393 renal = system: RXF 393 renal
BT-549 breast = system: BT-549 breast
NCI-H226 lung = system: NCI-H226 lung
NCI/ADR-RES ovarian = system: NCI/ADR-RES ovarian
SW-620 colon = system: SW-620 colon
KM12 colon = system: KM12 colon
UACC-257 melanoma = system: UACC-257 melanoma
SN12C renal = system: SN12C renal
CAKI-1 renal = system: CAKI-1 renal
SK-MEL-28 melanoma = system: SK-MEL-28 melanoma
SNB-19 CNS = system: SNB-19 CNS
NCI-H460 lung = system: NCI-H460 lung
M14 melanoma = system: M14 melanoma
HS 578T breast = system: HS 578T breast
MCF7 breast = system: MCF7 breast
A498 renal = system: A498 renal
SK-OV-3 ovarian = system: SK-OV-3 ovarian
A549 NSCLC = system: A549 NSCLC
HCC-2998 colon = system: HCC-2998 colon
SF-268 CNS = system: SF-268 CNS
HCT-15 colon = system: HCT-15 colon
SR leukemia = system: SR leukemia
SK-MEL-2 melanoma = system: SK-MEL-2 melanoma
HT29 colon = system: HT29 colon
IGROV1 ovarian = system: IGROV1 ovarian
MDA-MB-435 = system: MDA-MB-435
NCI-H522 lung = system: NCI-H522 lung
OVCAR-5 ovarian = system: OVCAR-5 ovarian
UACC-62 melanoma = system: UACC-62 melanoma
MOLT-4 leukemia = system: MOLT-4 leukemia
CCRF-CEM leukemia = system: CCRF-CEM leukemia
SK-MEL-5 melanoma = system: SK-MEL-5 melanoma
TK-10 renal = system: TK-10 renal
MALME-3M melanoma = system: MALME-3M melanoma
MDA-N = system: MDA-N
SF-295 CNS = system: SF-295 CNS
HOP-92 NSCLC = system: HOP-92 NSCLC
UO-31 renal = system: UO-31 renal
EKVX NSCLC = system: EKVX NSCLC
ACHN renal = system: ACHN renal
COLO 205 colon = system: COLO 205 colon
K-562 leukemia = system: K-562 leukemia
OVCAR-8 ovarian = system: OVCAR-8 ovarian
NCI-H23 lung = system: NCI-H23 lung
786-0 renal = system: 786-0 renal
OVCAR-3 ovarian = system: OVCAR-3 ovarian
HCT-116 colon = system: HCT-116 colon
LOX IMVI melanoma = system: LOX IMVI melanoma
DU-145 prostate = system: DU-145 prostate
MDA-MB-231 breast = system: MDA-MB-231 breast
PC-3 prostate = system: PC-3 prostate
HOP-62 NSCLC = system: HOP-62 NSCLC
SNB-75 CNS = system: SNB-75 CNS
U251 CNS = system: U251 CNS
T-47D breast = system: T-47D breast
OVCAR-4 ovarian = system: OVCAR-4 ovarian
SF-539 CNS = system: SF-539 CNS

## CSc1ccc(/C=C2\N=C(c3ccccc3)N(c3nc4ccc(Sc5ccccc5)cc4[nH]3)C2=O)cc1
RPMI-8226 leukemia
  TGI: 57.2 µM
HL-60(TB) leukemia
  TGI: 49.4 µM
RXF 393 renal
  TGI: 56.9 µM
BT-549 breast
  TGI: 50.1 µM
NCI-H226 lung
  GI50: 20.6 µM
  TGI: > 83.1 µM
NCI/ADR-RES ovarian
  TGI: 72.3 µM
SW-620 colon
  TGI: 52.5 µM
KM12 colon
  TGI: 52 µM
UACC-257 melanoma
  TGI: 55.6 µM
SN12C renal
  TGI: > 84.2 µM
CAKI-1 renal
  TGI: > 94 µM
SK-MEL-28 melanoma
  TGI: 51.8 µM
SNB-19 CNS
  TGI: > 89.2 µM
NCI-H460 lung
  TGI: 61.3 µM
M14 melanoma
  TGI: 32.5 µM
HS 578T breast
  TGI: 58.1 µM
MCF7 breast
  TGI: 45.9 µM
A498 renal
  TGI: 62 µM
SK-OV-3 ovarian
  TGI: 60.8 µM
A549 NSCLC
  TGI: > 97.2 µM
HCC-2998 colon
  TGI: 38.2 µM
SF-268 CNS
  TGI: > 77.8 µM
HCT-15 colon
  TGI: > 86.2 µM
SR leukemia
  GI50: 13.7 µM
  TGI: > 87.5 µM
SK-MEL-2 melanoma
  TGI: 37 µM
HT29 colon
  TGI: 50.4 µM
IGROV1 ovarian
  TGI: > 100 µM
MDA-MB-435
  TGI: 16.1 µM
NCI-H522 lung
  TGI: 39.9 µM
OVCAR-5 ovarian
  TGI: 83.7 µM
UACC-62 melanoma
  TGI: 39.1 µM
MOLT-4 leukemia
  TGI: 80.9 µM
CCRF-CEM leukemia
  TGI: 86.8 µM
SK-MEL-5 melanoma
  TGI: 27.3 µM
TK-10 renal
  TGI: 60.8 µM
MALME-3M melanoma
  TGI: > 58.5 µM
MDA-N
  TGI: 18 µM
SF-295 CNS
  TGI: 50.5 µM
HOP-92 NSCLC
  TGI: 34 µM
UO-31 renal
  TGI: 68.5 µM
EKVX NSCLC
  TGI: > 100 µM
ACHN renal
  TGI: > 100 µM
COLO 205 colon
  TGI: 30.9 µM
K-562 leukemia
  TGI: 66.4 µM
OVCAR-8 ovarian
  TGI: > 87.4 µM
NCI-H23 lung
  TGI: > 94.5 µM
786-0 renal
  TGI: 50.8 µM
OVCAR-3 ovarian
  TGI: 35.9 µM
HCT-116 colon
  TGI: 48.5 µM
LOX IMVI melanoma
  TGI: 41.6 µM
DU-145 prostate
  TGI: 70.7 µM
MDA-MB-231 breast
  TGI: 55.5 µM
PC-3 prostate
  TGI: > 87.9 µM
HOP-62 NSCLC
  TGI: 65.9 µM
SNB-75 CNS
  TGI: 45.6 µM
U251 CNS
  TGI: 41.3 µM
T-47D breast
  TGI: 60.6 µM
OVCAR-4 ovarian
  TGI: > 100 µM
SF-539 CNS
  GI50: 15 µM
  TGI: 32.5 µM

## Cc1ccc(N=C2C(=O)C3=C(OC(C)(C)CC3)c3ccccc32)cc1
RPMI-8226 leukemia
  TGI: 0.933 µM
HL-60(TB) leukemia
  TGI: 3.21 µM
RXF 393 renal
  TGI: 3.12 µM
BT-549 breast
  TGI: 3.46 µM
NCI-H226 lung
  TGI: > 20.4 µM
NCI/ADR-RES ovarian
  TGI: 1.75 µM
SW-620 colon
  TGI: 2.14 µM
KM12 colon
  TGI: 4.01 µM
UACC-257 melanoma
  TGI: 1.72 µM
SN12C renal
  TGI: 1.73 µM
CAKI-1 renal
  TGI: 3.16 µM
SK-MEL-28 melanoma
  TGI: 4.69 µM
SNB-19 CNS
  TGI: 2.26 µM
NCI-H460 lung
  TGI: 3.96 µM
M14 melanoma
  TGI: 1.59 µM
HS 578T breast
  TGI: > 23.2 µM
MCF7 breast
  TGI: 1.23 µM
A498 renal
  TGI: 3.81 µM
SK-OV-3 ovarian
  TGI: 3.1 µM
A549 NSCLC
  TGI: 3.69 µM
HCC-2998 colon
  TGI: 3.36 µM
SF-268 CNS
  TGI: 6.37 µM
SR leukemia
  TGI: 1.6 µM
SK-MEL-2 melanoma
  TGI: 3.31 µM
HT29 colon
  TGI: 1.15 µM
IGROV1 ovarian
  TGI: 2.03 µM
MDA-MB-435
  TGI: 0.346 µM
NCI-H522 lung
  TGI: 3 µM
OVCAR-5 ovarian
  TGI: 3.5 µM
UACC-62 melanoma
  TGI: 2.88 µM
MOLT-4 leukemia
  TGI: 3.08 µM
CCRF-CEM leukemia
  TGI: 10.1 µM
SK-MEL-5 melanoma
  TGI: 2.28 µM
TK-10 renal
  TGI: 4.86 µM
MALME-3M melanoma
  TGI: 1.7 µM
MDA-N
  TGI: 0.335 µM
SF-295 CNS
  TGI: 2.7 µM
HOP-92 NSCLC
  TGI: 3.2 µM
UO-31 renal
  TGI: 1.96 µM
EKVX NSCLC
  TGI: 3.35 µM
ACHN renal
  TGI: 1.54 µM
COLO 205 colon
  TGI: 3.29 µM
K-562 leukemia
  TGI: 0.86 µM
NCI-H23 lung
  TGI: 6.88 µM
786-0 renal
  TGI: 3.18 µM
OVCAR-3 ovarian
  TGI: 0.589 µM
HCT-116 colon
  TGI: 1.05 µM
DU-145 prostate
  TGI: 2.59 µM
MDA-MB-231 breast
  TGI: 4.1 µM
PC-3 prostate
  TGI: 3.52 µM
HOP-62 NSCLC
  TGI: 1.76 µM
SNB-75 CNS
  TGI: 2.51 µM
U251 CNS
  TGI: 1.91 µM
T-47D breast
  TGI: 1.37 µM
OVCAR-4 ovarian
  TGI: 2.18 µM
